Tested on: Hs578T
Assay: drug sensitivity score (DSS), CellTiter-Glo (DSS (AUC-based score)); higher = stronger drug effect (viability inhibition or cytotoxicity); extreme values may be limits of the assay
Conditions: incubation time: 72 h
Procedure, shortened: (§1)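 For 72 h, breast cancer cell lines seeded at 20 µl suspension per well in 384-well plates were incubated with compound at 5 concentrations in 10-fold steps spanning a 10,000-fold range that differed by compound. The first reading was CellTox Green fluorescence at 485/520 nm, and the second was CellTiter-Glo luminescence after 10 min at room temperature. Both were normalised per plate to 0.1 % DMSO and a positive kill control, and the drug sensitivity score was obtained from the area under the fitted dose-response curve.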

In order of rising drug sensitivity score:
1. CCN(CC)CCCC(C)Nc1c2ccc(Cl)cc2nc2ccc(OC)cc12 (stereo unspecified) [Mepacrine]  0
2. Cc1ccc(-c2cc(C(F)(F)F)nn2-c2ccc(S(N)(=O)=O)cc2)cc1 [Celecoxib]  0
3. COc1cc2c(NC3CCN(C(C)C)CC3)nc(C3CCCCC3)nc2cc1OCCCN1CCCC1 [UNC0638]  0
4. CCc1cncnc1N1CCN(Cc2nc3ccc(C(F)(F)F)cc3[nH]2)CC1  0
5. COc1cc2nccc(Oc3ccc(NC(=O)Nc4cc(C)on4)c(Cl)c3)c2cc1OC [Tivozanib]  0
6. COc1cc([C@@H]2c3cc4c(cc3[C@@H](O[C@@H]3O[C@@H]5CO[C@@H](c6cccs6)O[C@H]5[C@H](O)[C@H]3O)[C@H]3COC(=O)[C@H]23)OCO4)cc(OC)c1O [Teniposide]  7.63

Tested on: MDA-MB-453
Assay: as above
Conditions: incubation time: 72 h
Procedure, shortened: as §1

In order of falling drug sensitivity score:
1. CC[C@@H]1C(=O)N(C)c2cnc(Nc3ccc(C(=O)NC4CCN(C)CC4)cc3OC)nc2N1C1CCCC1 [BI 2536]  11.5
2. COc1cc2c(NC3CCN(C(C)C)CC3)nc(C3CCCCC3)nc2cc1OCCCN1CCCC1 [UNC0638]  7.02
3. C=CCc1cccc(/C=N/NC(=O)CN2CCN(Cc3ccccc3)CC2)c1O [PAC-1]  5.01
4. COc1cc2nccc(Oc3ccc(NC(=O)Nc4cc(C)on4)c(Cl)c3)c2cc1OC [Tivozanib]  2.71
5. CCc1cncnc1N1CCN(Cc2nc3ccc(C(F)(F)F)cc3[nH]2)CC1  1.08
6. CC(=O)Nc1cccc(-n2c(=O)n(C3CC3)c(=O)c3c(Nc4ccc(I)cc4F)n(C)c(=O)c(C)c32)c1 [Trametinib]  0
7. Nc1nc(F)nc2c1ncn2[C@@H]1O[C@H](CO)[C@@H](O)[C@@H]1O [Fludarabine]  0
8. Nc1ncn([C@H]2C[C@H](O)[C@@H](CO)O2)c(=O)n1 [Decitabine]  0
9. CC[C@H](C)C(=O)O[C@H]1C[C@H](O)C=C2C=C[C@H](C)[C@H](CC[C@@H](O)C[C@@H](O)CC(=O)O)[C@H]21 [Pravastatin]  0
10. O=C(O)C(=O)O.[NH-][C@@H]1CCCC[C@H]1[NH-].[Pt+2] [Oxaliplatin]  0
11. CCN(CC)CCCC(C)Nc1c2ccc(Cl)cc2nc2ccc(OC)cc12 (stereo unspecified) [Mepacrine]  0
12. Cc1ccc(-c2cc(C(F)(F)F)nn2-c2ccc(S(N)(=O)=O)cc2)cc1 [Celecoxib]  0
13. COc1cc([C@@H]2c3cc4c(cc3[C@@H](O[C@@H]3O[C@@H]5CO[C@@H](c6cccs6)O[C@H]5[C@H](O)[C@H]3O)[C@H]3COC(=O)[C@H]23)OCO4)cc(OC)c1O [Teniposide]  0

Tested on: SK-BR-3
Assay: as above
Conditions: incubation time: 72 h
Procedure, shortened: as §1

In order of rising drug sensitivity score:
1. CC(=O)Nc1cccc(-n2c(=O)n(C3CC3)c(=O)c3c(Nc4ccc(I)cc4F)n(C)c(=O)c(C)c32)c1 [Trametinib]  0
2. Nc1nc(F)nc2c1ncn2[C@@H]1O[C@H](CO)[C@@H](O)[C@@H]1O [Fludarabine]  0
3. Nc1ncn([C@H]2C[C@H](O)[C@@H](CO)O2)c(=O)n1 [Decitabine]  0
4. O=C(O)C(=O)O.[NH-][C@@H]1CCCC[C@H]1[NH-].[Pt+2] [Oxaliplatin]  0
5. CCN(CC)CCCC(C)Nc1c2ccc(Cl)cc2nc2ccc(OC)cc12 (stereo unspecified) [Mepacrine]  0
6. Cc1ccc(-c2cc(C(F)(F)F)nn2-c2ccc(S(N)(=O)=O)cc2)cc1 [Celecoxib]  0
7. CCc1cncnc1N1CCN(Cc2nc3ccc(C(F)(F)F)cc3[nH]2)CC1  0
8. COc1cc2nccc(Oc3ccc(NC(=O)Nc4cc(C)on4)c(Cl)c3)c2cc1OC [Tivozanib]  0
9. C=CCc1cccc(/C=N/NC(=O)CN2CCN(Cc3ccccc3)CC2)c1O [PAC-1]  3.2
10. CC[C@H](C)C(=O)O[C@H]1C[C@H](O)C=C2C=C[C@H](C)[C@H](CC[C@@H](O)C[C@@H](O)CC(=O)O)[C@H]21 [Pravastatin]  4.87
11. COc1cc2c(NC3CCN(C(C)C)CC3)nc(C3CCCCC3)nc2cc1OCCCN1CCCC1 [UNC0638]  6.09
12. COc1cc([C@@H]2c3cc4c(cc3[C@@H](O[C@@H]3O[C@@H]5CO[C@@H](c6cccs6)O[C@H]5[C@H](O)[C@H]3O)[C@H]3COC(=O)[C@H]23)OCO4)cc(OC)c1O [Teniposide]  20.3
13. CC[C@@H]1C(=O)N(C)c2cnc(Nc3ccc(C(=O)NC4CCN(C)CC4)cc3OC)nc2N1C1CCCC1 [BI 2536]  25.7

Tested on: BT-474
Assay: drug sensitivity score (DSS), CellTox Green (DSS (AUC-based score)); higher = stronger drug effect (viability inhibition or cytotoxicity); extreme values may be limits of the assay
Conditions: incubation time: 72 h
Procedure, shortened: as §1

In order of rising drug sensitivity score:
1. CC(=O)Nc1cccc(-n2c(=O)n(C3CC3)c(=O)c3c(Nc4ccc(I)cc4F)n(C)c(=O)c(C)c32)c1 [Trametinib]  0
2. Nc1nc(F)nc2c1ncn2[C@@H]1O[C@H](CO)[C@@H](O)[C@@H]1O [Fludarabine]  0
3. Nc1ncn([C@H]2C[C@H](O)[C@@H](CO)O2)c(=O)n1 [Decitabine]  0
4. CC[C@@H]1C(=O)N(C)c2cnc(Nc3ccc(C(=O)NC4CCN(C)CC4)cc3OC)nc2N1C1CCCC1 [BI 2536]  0
5. CC[C@H](C)C(=O)O[C@H]1C[C@H](O)C=C2C=C[C@H](C)[C@H](CC[C@@H](O)C[C@@H](O)CC(=O)O)[C@H]21 [Pravastatin]  0
6. O=C(O)C(=O)O.[NH-][C@@H]1CCCC[C@H]1[NH-].[Pt+2] [Oxaliplatin]  0
7. CCN(CC)CCCC(C)Nc1c2ccc(Cl)cc2nc2ccc(OC)cc12 (stereo unspecified) [Mepacrine]  0
8. Cc1ccc(-c2cc(C(F)(F)F)nn2-c2ccc(S(N)(=O)=O)cc2)cc1 [Celecoxib]  0
9. COc1cc([C@@H]2c3cc4c(cc3[C@@H](O[C@@H]3O[C@@H]5CO[C@@H](c6cccs6)O[C@H]5[C@H](O)[C@H]3O)[C@H]3COC(=O)[C@H]23)OCO4)cc(OC)c1O [Teniposide]  0
10. CCc1cncnc1N1CCN(Cc2nc3ccc(C(F)(F)F)cc3[nH]2)CC1  0
11. COc1cc2nccc(Oc3ccc(NC(=O)Nc4cc(C)on4)c(Cl)c3)c2cc1OC [Tivozanib]  0
12. C=CCc1cccc(/C=N/NC(=O)CN2CCN(Cc3ccccc3)CC2)c1O [PAC-1]  1
13. COc1cc2c(NC3CCN(C(C)C)CC3)nc(C3CCCCC3)nc2cc1OCCCN1CCCC1 [UNC0638]  7.51

Tested on: BT-549
Assay: as above
Conditions: incubation time: 72 h
Procedure, shortened: as §1

In order of falling drug sensitivity score:
1. C=CCc1cccc(/C=N/NC(=O)CN2CCN(Cc3ccccc3)CC2)c1O [PAC-1]  8.49
2. COc1cc2c(NC3CCN(C(C)C)CC3)nc(C3CCCCC3)nc2cc1OCCCN1CCCC1 [UNC0638]  8.31
3. CC[C@H](C)C(=O)O[C@H]1C[C@H](O)C=C2C=C[C@H](C)[C@H](CC[C@@H](O)C[C@@H](O)CC(=O)O)[C@H]21 [Pravastatin]  0.618
4. CC(=O)Nc1cccc(-n2c(=O)n(C3CC3)c(=O)c3c(Nc4ccc(I)cc4F)n(C)c(=O)c(C)c32)c1 [Trametinib]  0
5. Nc1nc(F)nc2c1ncn2[C@@H]1O[C@H](CO)[C@@H](O)[C@@H]1O [Fludarabine]  0
6. Nc1ncn([C@H]2C[C@H](O)[C@@H](CO)O2)c(=O)n1 [Decitabine]  0
7. CC[C@@H]1C(=O)N(C)c2cnc(Nc3ccc(C(=O)NC4CCN(C)CC4)cc3OC)nc2N1C1CCCC1 [BI 2536]  0
8. O=C(O)C(=O)O.[NH-][C@@H]1CCCC[C@H]1[NH-].[Pt+2] [Oxaliplatin]  0
9. CCN(CC)CCCC(C)Nc1c2ccc(Cl)cc2nc2ccc(OC)cc12 (stereo unspecified) [Mepacrine]  0
10. Cc1ccc(-c2cc(C(F)(F)F)nn2-c2ccc(S(N)(=O)=O)cc2)cc1 [Celecoxib]  0
11. COc1cc([C@@H]2c3cc4c(cc3[C@@H](O[C@@H]3O[C@@H]5CO[C@@H](c6cccs6)O[C@H]5[C@H](O)[C@H]3O)[C@H]3COC(=O)[C@H]23)OCO4)cc(OC)c1O [Teniposide]  0
12. CCc1cncnc1N1CCN(Cc2nc3ccc(C(F)(F)F)cc3[nH]2)CC1  0
13. COc1cc2nccc(Oc3ccc(NC(=O)Nc4cc(C)on4)c(Cl)c3)c2cc1OC [Tivozanib]  0

Tested on: CAL-120
Assay: as above
Conditions: incubation time: 72 h
Procedure, shortened: as §1

In order of rising drug sensitivity score:
1. C=CCc1cccc(/C=N/NC(=O)CN2CCN(Cc3ccccc3)CC2)c1O [PAC-1]  0
2. Nc1nc(F)nc2c1ncn2[C@@H]1O[C@H](CO)[C@@H](O)[C@@H]1O [Fludarabine]  0
3. Nc1ncn([C@H]2C[C@H](O)[C@@H](CO)O2)c(=O)n1 [Decitabine]  0
4. CC[C@H](C)C(=O)O[C@H]1C[C@H](O)C=C2C=C[C@H](C)[C@H](CC[C@@H](O)C[C@@H](O)CC(=O)O)[C@H]21 [Pravastatin]  0
5. O=C(O)C(=O)O.[NH-][C@@H]1CCCC[C@H]1[NH-].[Pt+2] [Oxaliplatin]  0
6. CCN(CC)CCCC(C)Nc1c2ccc(Cl)cc2nc2ccc(OC)cc12 (stereo unspecified) [Mepacrine]  0
7. Cc1ccc(-c2cc(C(F)(F)F)nn2-c2ccc(S(N)(=O)=O)cc2)cc1 [Celecoxib]  0
8. CCc1cncnc1N1CCN(Cc2nc3ccc(C(F)(F)F)cc3[nH]2)CC1  0
9. COc1cc2nccc(Oc3ccc(NC(=O)Nc4cc(C)on4)c(Cl)c3)c2cc1OC [Tivozanib]  0
10. CC(=O)Nc1cccc(-n2c(=O)n(C3CC3)c(=O)c3c(Nc4ccc(I)cc4F)n(C)c(=O)c(C)c32)c1 [Trametinib]  1.74
11. CC[C@@H]1C(=O)N(C)c2cnc(Nc3ccc(C(=O)NC4CCN(C)CC4)cc3OC)nc2N1C1CCCC1 [BI 2536]  1.97
12. COc1cc([C@@H]2c3cc4c(cc3[C@@H](O[C@@H]3O[C@@H]5CO[C@@H](c6cccs6)O[C@H]5[C@H](O)[C@H]3O)[C@H]3COC(=O)[C@H]23)OCO4)cc(OC)c1O [Teniposide]  4.54
13. COc1cc2c(NC3CCN(C(C)C)CC3)nc(C3CCCCC3)nc2cc1OCCCN1CCCC1 [UNC0638]  6.94

Tested on: CAL-148
Assay: as above
Conditions: incubation time: 72 h
Procedure, shortened: as §1

In order of rising drug sensitivity score:
1. CC(=O)Nc1cccc(-n2c(=O)n(C3CC3)c(=O)c3c(Nc4ccc(I)cc4F)n(C)c(=O)c(C)c32)c1 [Trametinib]  0
2. C=CCc1cccc(/C=N/NC(=O)CN2CCN(Cc3ccccc3)CC2)c1O [PAC-1]  0
3. Nc1nc(F)nc2c1ncn2[C@@H]1O[C@H](CO)[C@@H](O)[C@@H]1O [Fludarabine]  0
4. Nc1ncn([C@H]2C[C@H](O)[C@@H](CO)O2)c(=O)n1 [Decitabine]  0
5. CC[C@@H]1C(=O)N(C)c2cnc(Nc3ccc(C(=O)NC4CCN(C)CC4)cc3OC)nc2N1C1CCCC1 [BI 2536]  0
6. CC[C@H](C)C(=O)O[C@H]1C[C@H](O)C=C2C=C[C@H](C)[C@H](CC[C@@H](O)C[C@@H](O)CC(=O)O)[C@H]21 [Pravastatin]  0
7. CCN(CC)CCCC(C)Nc1c2ccc(Cl)cc2nc2ccc(OC)cc12 (stereo unspecified) [Mepacrine]  0
8. Cc1ccc(-c2cc(C(F)(F)F)nn2-c2ccc(S(N)(=O)=O)cc2)cc1 [Celecoxib]  0
9. CCc1cncnc1N1CCN(Cc2nc3ccc(C(F)(F)F)cc3[nH]2)CC1  0
10. COc1cc2nccc(Oc3ccc(NC(=O)Nc4cc(C)on4)c(Cl)c3)c2cc1OC [Tivozanib]  0
11. COc1cc2c(NC3CCN(C(C)C)CC3)nc(C3CCCCC3)nc2cc1OCCCN1CCCC1 [UNC0638]  6.35
12. COc1cc([C@@H]2c3cc4c(cc3[C@@H](O[C@@H]3O[C@@H]5CO[C@@H](c6cccs6)O[C@H]5[C@H](O)[C@H]3O)[C@H]3COC(=O)[C@H]23)OCO4)cc(OC)c1O [Teniposide]  25.1

Tested on: CAL-51
Assay: as above
Conditions: incubation time: 72 h
Procedure, shortened: as §1

In order of falling drug sensitivity score:
1. C=CCc1cccc(/C=N/NC(=O)CN2CCN(Cc3ccccc3)CC2)c1O [PAC-1]  4.72
2. CC(=O)Nc1cccc(-n2c(=O)n(C3CC3)c(=O)c3c(Nc4ccc(I)cc4F)n(C)c(=O)c(C)c32)c1 [Trametinib]  0
3. Nc1nc(F)nc2c1ncn2[C@@H]1O[C@H](CO)[C@@H](O)[C@@H]1O [Fludarabine]  0

Reference: the supplement of paper PMC4862054
